Reference: article PMC9833666, “Designing and identifying β-hairpin peptide macrocycles with antibiotic potential” (Science Advances, 2023)
Entries after “also recorded” stand apart in the source; their conditions may differ. Like-named read-outs stand apart in the source and are kept apart here. Bridge positions count the residues as written; N and C are the ends. Ends that are not written are not given here. Peptide text beside a SMILES is read from it.

Key:
[1] = High-resolution LC-MS, percentage with intramolecular disulfide bond (%S-S); format: physicochemical
Method: Stock peptides were diluted into PBS (pH 7.4) at 0.1 mg/ml in a volume of 150 μl and placed into 2-ml autosampler vials with small volume inserts (Fisherbrand, 03-391-8). Samples were separated by a C8 LC column, and an extracted ion chromatogram was generated for the most prevalent charge state isotopes. Mass spectra were generated for each extracted LC peak using an Agilent Technologies 6546 Accurate Mass quadrupole orthogonal acceleration–time-of-flight LC-MS instrument. Analysis was performed using Agilent MassHunter Qualitative software v10. The isotope distribution for each LC peak from each sample was compared to predicted distributions created using Agilent’s Isotope Distribution Calculator. Percentages of molecules with disulfide bonds was determined by comparing the area under the curve for each LC peak containing a disulfide bond over the total area of all relevant peaks (sum area %) and reported as a mean of three technical replicates ± 1 SD.

Escherichia coli W3110 = format: cell-based; conditions: for Ec W3110 MIC MH: E. coli W3110, MH medium; for W3110 MIC MHII: E. coli W3110, MHII medium; for Ec W3110 MIC RPMI: E. coli W3110, RPMI medium
E. coli W3110 = assay: Surface-localized antimicrobial display (SLAY), log2 fold change in reads; format: cell-based, Escherichia coli; conditions: 3 h 37°C; for l2FC_IPTG_15: induced (15 μM IPTG, low induction) vs uninduced; for l2FC_IPTG_100: induced (100 μM IPTG, high induction) vs uninduced
Method: SLAY procedures have been detailed previously ([25], [26]). Briefly, 100 μl of E. coli W3110 frozen cells containing the pooled SynCH plasmid library were recovered in 10 ml of LB supplemented with carbenicillin (75 μg/ml) for 2 hours. The culture was then back-diluted to an OD of 0.05, and three triplicate 5-ml cultures were set up in LB supplemented with carbenicillin (75 μg/ml). Triplicate reactions included uninduced (0 μM IPTG), low induction (15 μM IPTG), and high induction (100 μM IPTG). All triplicate cultures were then grown for 3 hours at 37°C. Plasmids from each triplicate culture were isolated via Miniprep, and Illumina sequencing primers (see table S6) were used to produce an amplicon via PCR from plasmids from each culture containing a unique i7 barcode identifier. Amplicons were then gel extracted, cleaned, concentrated, and sent to Genewiz for next-generation sequencing by Illumina HiSeq technology with 30% added Phi-X DNA.
Methods of SLAY analysis have been previously described elsewhere. Here, raw sequencing reads were trimmed of adapter sequences using Flexbar ([30]) and then assessed for quality via FastQC ([31]). Next, trimmed reads were mapped to a reference derived from all possible SynCH sequences using Kallisto ([32]). Last, log2 fold change estimates and other relevant statistics were calculated using DESeq2 ([33]).

[2] = Circular dichroism (CD) spectroscopy (secondary structure, aggregation); format: physicochemical; conditions: CD at 450 µg/ml to 50 µg/ml, 10 mM potassium phosphate pH 7.4
[3] = system: Single-donor human red blood cells; assay: Hemolysis assay; format: cell-based
Method in brief: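 Peptides at 300 μg/ml (SySA library) or 128 μg/ml (SySA-5 optimization library) were incubated in triplicate with washed single-donor RBCs (1 × 10^9 cells/ml) for 3 h at 37 °C. Supernatant A540 was background-normalized to PBS and expressed relative to 1% Triton X-100 (100% hemolysis).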

[4] = system: Acinetobacter baumannii AB5075

Compound | %S-S [1] | Ec W3110 MIC MH (Escherichia coli W3110) | W3110 MIC MHII (Escherichia coli W3110) | Ec W3110 MIC RPMI (Escherichia coli W3110) | W3110 MIC MH (Escherichia coli W3110; W3110) | W3110 MIC RPMI (Escherichia coli W3110; W3110) | l2FC_IPTG_15 (E. coli W3110) | l2FC_IPTG_100 (E. coli W3110) | other results
CC(C)C[C@@H]1NC(=O)[C@H](CO)NC(=O)[C@H](C(C)C)NC(=O)[C@H](CCCCN)NC(=O)[C@H](C(C)C)NC(=O)[C@H](CCCNC(=N)N)NC(=O)[C@H](CCCNC(=N)N)NC(=O)[C@H](CCCNC(=N)N)NC(=O)CNC(=O)[C@H](CC(N)=O)NC(=O)[C@H](CC(N)=O)NC(=O)[C@H](CC(C)C)NC(=O)[C@H](CCCNC(=N)N)NC(=O)[C@H](C(C)C)NC(=O)[C@H](CCCNC(=N)N)NC(=O)[C@H](C(C)C)NC(=O)[C@@H](N)CSSC[C@@H](C(=O)O)NC(=O)[C@H](C(C)C)NC(=O)[C@H](CCC(N)=O)NC1=O [SySA-26] (H-CVRVRLNNGRRRVKVSLQVC-OH; disulfide 1-20; N-terminus and C-terminus assumed) | 100% | 16 µg/mL | > 128 µg/mL | 16 µg/mL | 16 µg/mL | 16 µg/mL |  |  | 
CLRIRVNDRRRGVKITLEVC (disulfide 1-20 (inferred)) |  |  |  |  |  |  | 0.457 | 0.630 | 
CC[C@H](C)[C@@H]1NC(=O)[C@H](CCCCN)NC(=O)[C@H](CC(C)C)NC(=O)CNC(=O)[C@H](CCCNC(=N)N)NC(=O)[C@H](CCCNC(=N)N)NC(=O)[C@H](CCCNC(=N)N)NC(=O)[C@H](CC(N)=O)NC(=O)[C@H](CC(N)=O)NC(=O)[C@H](CC(C)C)NC(=O)[C@H](CCCNC(=N)N)NC(=O)[C@H](C(C)C)NC(=O)[C@H](CCCNC(=N)N)NC(=O)[C@H](CC(C)C)NC(=O)[C@@H](N)CSSC[C@@H](C(=O)O)NC(=O)[C@H](C(C)C)NC(=O)[C@H](CCC(N)=O)NC(=O)[C@H](CC(C)C)NC(=O)[C@H](CO)NC1=O [SySA-61] (H-CLRVRLNNRRRGLKISLQVC-OH; disulfide 1-20; N-terminus and C-terminus assumed) | 91.5% | 32 µg/mL | > 128 µg/mL | 8 µg/mL | 32 µg/mL | 8 µg/mL |  |  | 
CVTIRVDNGGGGLRITLQVC (disulfide 1-20 (inferred)) |  |  |  |  |  |  | -0.299 | 0.025 | 
CRIKINIDDRGGTVKLEVQC (disulfide 1-20 (inferred)) |  |  |  |  |  |  | -0.180 | -0.210 | 
CLRIRVDDRRRRVRITLQVC (disulfide 1-20 (inferred)) |  |  |  |  |  |  | 0.055 | 0.322 | 
CC[C@H](C)[C@@H]1NC(=O)[C@H](CCCCN)NC(=O)[C@H](C(C)C)NC(=O)CNC(=O)[C@H](CCCNC(=N)N)NC(=O)[C@H](CCCNC(=N)N)NC(=O)[C@H](CCCNC(=N)N)NC(=O)[C@H](CC(N)=O)NC(=O)[C@H](CC(N)=O)NC(=O)[C@H](CC(C)C)NC(=O)[C@H](CCCNC(=N)N)NC(=O)[C@H](C(C)C)NC(=O)[C@H](CCCNC(=N)N)NC(=O)[C@H](C(C)C)NC(=O)[C@@H](N)CSSC[C@@H](C(=O)O)NC(=O)[C@H](C(C)C)NC(=O)[C@H](CCC(N)=O)NC(=O)[C@H](CC(C)C)NC(=O)[C@H](CO)NC1=O [SySA-49] (H-CVRVRLNNRRRGVKISLQVC-OH; disulfide 1-20; N-terminus and C-terminus assumed) | 91.4% | 32 µg/mL | > 128 µg/mL | 8 µg/mL | 32 µg/mL | 8 µg/mL |  |  | molar ellipticity of CD spectrum at different concentrations (aggregation) [2]: remained relatively constant regardless of increased concentration; also recorded: equivalent at increased and reduced concentrations
CC(C)C[C@@H]1NC(=O)CNC(=O)[C@H](CCCNC(=N)N)NC(=O)[C@H](CCCNC(=N)N)NC(=O)[C@H](CCCNC(=N)N)NC(=O)[C@H](CC(N)=O)NC(=O)[C@H](CC(N)=O)NC(=O)[C@H](CC(C)C)NC(=O)[C@H](CCCNC(=N)N)NC(=O)[C@H](C(C)C)NC(=O)[C@H](CCCNC(=N)N)NC(=O)[C@H](C(C)C)NC(=O)[C@@H](N)CSSC[C@@H](C(=O)O)NC(=O)[C@H](C(C)C)NC(=O)[C@H](CCC(N)=O)NC(=O)[C@H](CC(C)C)NC(=O)[C@H](CO)NC(=O)[C@H](C(C)C)NC(=O)[C@H](CCCNC(=N)N)NC1=O [SySA-29] (H-CVRVRLNNRRRGLRVSLQVC-OH; disulfide 1-20; N-terminus and C-terminus assumed) | 100% | 16 µg/mL | > 128 µg/mL | 8 µg/mL | 16 µg/mL | 8 µg/mL |  |  | 
RGGRLCYCRRRFCVCVGR (disulfide (positions not given here)) [Protegrin] | 100% | 0.5 µg/mL | 8 µg/mL | 0.5 µg/mL |  |  |  |  | hemolysis [3]: 41.84%
CRIKIDVDDGRRRVRLELQC (disulfide 1-20 (inferred)) |  |  |  |  |  |  | 0.041 | 0.249 | 
CC(C)C[C@@H]1NC(=O)[C@H](CCCNC(=N)N)NC(=O)[C@H](C(C)C)NC(=O)[C@H](CCCNC(=N)N)NC(=O)[C@H](CC(C)C)NC(=O)[C@@H](N)CSSC[C@@H](C(=O)O)NC(=O)[C@H](C(C)C)NC(=O)[C@H](CCC(N)=O)NC(=O)[C@H](CC(C)C)NC(=O)[C@H](CO)NC(=O)[C@H](C(C)C)NC(=O)[C@H](CCCCN)NC(=O)[C@H](C(C)C)NC(=O)[C@H](CCCNC(=N)N)NC(=O)CNC(=O)[C@H](CCCNC(=N)N)NC(=O)[C@H](CCCNC(=N)N)NC(=O)[C@H](CC(N)=O)NC(=O)[C@H](CC(N)=O)NC1=O [SySA-5] (H-CLRVRLNNRRGRVKVSLQVC-OH; disulfide 1-20; N-terminus and C-terminus assumed) | 100% | 16 µg/mL | 128 µg/mL | 4 µg/mL |  | 4 µg/mL |  |  | W3110 MIC MH (Escherichia coli W3110; E. coli W3110, standard Mueller-Hinton broth, 37°C, 18-24 h, median of n=3): 16 µg/mL; AB5075 MIC FBS ([4]; 100% fetal bovine serum, replicate 1): >128 µg/mL; AB5075 MIC FBS ([4]; 100% fetal bovine serum, replicate 2): >128 µg/mL; AB5075 MIC FBS ([4]; 100% fetal bovine serum, replicate 3): >128 µg/mL; AB5075 MIC FBS ([4]; AB5075): > 128 µg/mL; AB5075 MIC MH ([4]; AB5075): 32 µg/mL; AB5075 MIC MH ([4]; Mueller-Hinton, replicate 1): 64 µg/mL; AB5075 MIC MH ([4]; Mueller-Hinton, replicate 2): 32 µg/mL; AB5075 MIC MH ([4]; Mueller-Hinton, replicate 3): 32 µg/mL
